Measured values: patent publication US8057810B2, “Peptide substance revealing an immunogeroprotective effect, pharmaceutical composition on its base and the method of its application” (priority 2006, dated 2011)
Marks after values point to notes of the source that are not given here. Residues, ends and D or L forms follow the SMILES beside them.

Assays:
[1] = tested on: white mongrel male mice; test: Acute toxicity, single intramuscular administration; assay type: in vivo; conditions: single i.m. 1-5 mg/kg, dose exceeding the therapeutic one by more than 5000 times
Experimental: (§1) Common toxicity of H-Glu-Asp-Pro-OH was studied according to the requirements stated in the “Manual for experimental (pre-clinical) study of new pharmacological substances” (2005): acute toxicity in case of single administration of the substance and sub-acute and chronic toxicity in case of long-term administration of the peptide.
(§2) The study of acute toxicity was performed on 60 white mongrel male mice with body weight of 18-21 g. The animals were randomly subdivided into 6 equal groups. The substance was administered to the animals once, intramuscularly, in the doses of 1 mg/kg, 2 mg/kg, 3 mg/kg, 4 mg/kg, 5 mg/kg in 0.25 ml of sterile 0.9% NaCl solution. The control animals received 0.9% NaCl solution in the same volume. The study of subacute toxicity was performed on 50 white mongrel male rats with body weight of 170-210 g. Experimental animals received the substance daily, intramuscularly for 90 days in the doses of 1 μg/kg, 0.1 mg/kg, 1 mg/kg in 0.5 ml of sterile 0.9% NaCl solution. […] Upon completion of the experiment biochemical and coagulologic indices of the blood were also evaluated. […] Traditional methods were used for the evaluation of the following indices of the animals' peripheric blood: the quantity of erythrocytes, hemoglobin, reticulocytes, thrombocytes, leukocytes, leukocyte formula, erythrocyte sedimentation rate (ESR), erythrocyte resistance. […]

[2] = tested on: lymphocytes taken from very old patients; test: Chromatin in blood lymphocytes of old patients in vitro; assay type: cell-based, human; conditions: 0.01 μg/ml; lymphocytes of patients aged 75-88
Experimental: Peptide H-Glu-Asp-Pro-OH effect on the system of chromatin domains was studied in old people lymphocytes cultures, in particular on chromatin reactivation such as in deheterochromatinization of heterocliromatin satellite filaments (activity of synthetic processes in ribosomal genes, total heterochromatin, structural heterochromatin (changeability of C-blocks of the 1, 9 and 16 chromosomes) and optional heterochromatin.
The studies were conducted on the chromosomes of 150 PHA-stimulated and 40 PHA-non-stimulated lymphocyte cultures, obtained from 95 healthy patients aged 75-88 (control—25 donors aged 20-40). There were studied 2 cell cultures from each patient —one intact and one with peptide H-Glu-Asp-Pro-OH added into the cultural medium up to the ultimate concentration of 0.01 μg/ml. To study each parameter there were analyzed from 30 up to 50 metaphases of both intact lymphocyte cultures and those with added peptide (10 cultures of each).
To estimate ribosomal genes activity in intact cultures and under the effect of the peptide there were used methods of Ag-banding and of the registration of nucleolar organizers regions (NOR) of acrocentric chromosomes. Changeability of the activity level was estimated comparing two binomial totals.
Polymorphism of structural C-heterochromatin of the 1, 9 and 16 chromosomes was estimated. For comparative analysis of C-stained chromosomes of intact cultures and those treated with the peptide there was used a standard system of classification, according to which the size of the 1, 9, 16 chromosomes C-segments were compared to the chromosome 16 short leg and the results were divided into 5 categories—a, b, c, d, e. The changeability of facultative heterochromatin was estimated according to the frequency of sister chromatid exchange (SCE) in intact and peptide-treated lymphocytes.

[3] = tested on: white mongrel male rats; test: Subacute toxicity, 90 days intramuscular; assay type: in vivo; conditions: i.m. daily for 90 days, 1 μg/kg, 0.1 mg/kg, 1 mg/kg (100-1000 times the therapeutic dose)
Experimental: as §1, §2

[4] = tested on: elderly and old patients with age-related immune status decline; test: Clinical application in elderly and old patients exposed to small doses of ionizing irradiation; assay type: in vivo, human
Experimental: The efficacy of pharmaceutical composition, containing an effective amount of peptide H-Glu-Asp-Pro-OH as an active base, was studied in elderly and old patients, exposed to long-term ionizing irradiation in small doses.
The main group consisted of 38 elderly patients (18 men, 20 women), who were divided into 3 groups according to the intensity of immune status changes. […] Elderly and old patients with age-related decrease of the immune functions were injected with the pharmaceutical composition containing peptide H-Glu-Asp-Pro-OH in the dose of 10.0 μg in 1 ml of sterile 0.9% NaCl solution intramuscularly, daily, once a day for 10 days. 32 control group patients (14 men, 18 women) received only conventional treatment. The patients of both groups were from 62 to 83 years old. The efficacy of the pharmaceutical composition containing peptide H-Glu-Asp-Pro-OH was estimated judging by the dynamics of the patients' complaints and a set of objective indices, such as common blood and urine tests, immunologic study of peripheral blood (the number of T- and B-lymphocytes was estimated using the immunofluorescence method with monoclonal antibodies to CD3, CD4, CD8, CD20 differentiation lymphocytes antigens; content of immunoglobulins of different classes—using Mancini's method of radial immunodiffusion in the gel, T-lymphocytes functional activity—in lymphocyte migration inhibition reaction (LMIR) with Con A.

[5] = patients 62-83 years, after treatment including the peptide, i.m. daily for 10 days

Structure (SMILES): N[C@@H](CCC(=O)O)C(=O)N[C@@H](CC(=O)O)C(=O)N1CCC[C@H]1C(=O)O [Peptide H-Glu-Asp-Pro-OH, glutamyl-aspartyl-proline] (H-Glu-Asp-Pro-OH)
- Acute toxicity: toxic reactions [1]: does not cause toxic reactions
- Associated acrocentric chromosomes (per cell) [2]: 2.32 ± 0.12 per cell
- Deheterochromatinization of optional heterochromatin - SCE (per cell) [2]: 8.4 ± 0.5 per cell
- Structural heterochromatin (C-blocks), chromosome 1 [2]: Deheterochro-
- Structural heterochromatin (C-blocks), chromosome 9 [2]: Deheterochro-
- Structural heterochromatin (C-blocks), chromosome 16 [2]: Stable
- Total heterochromatin [2]: Deheterochro-
- Subacute toxicity: side effects [3]: absence of any side effects
- Patients in whom disordered immune system indices were normalized ([4]; composition in different doses with symptomatic means, 56% in the control group): 82%
- Side effects in patients ([4]; elderly and old patients, composition in different doses): does not exert any side effects, complications or drug addiction
- General state and asthenic syndrome after the treatment course ([4]; elderly people in the three main groups): significant improvement of the general state and reduction of the asthenic syndrome
- CD3+, % [4, 5]: 55.7 ± 2.6 %
- CD3+, ×10^9/l [4, 5]: 1.86 ± 0.05 ×10^9/l
- CD4+, % [4, 5]: 34.6 ± 2.0 %
- CD4+, ×10^9/l [4, 5]: 0.67 ± 0.09 ×10^9/l
- CD4+/CD8+ [4, 5]: 1.4*#
- CD8+, % [4, 5]: 24.9 ± 1.8%
- CD8+, ×10^9/l [4, 5]: 0.46 ± 0.07 ×10^9/l
- CD20+, % [4, 5]: 12.0 ± 0.7%
- CD20+, ×10^9/l [4, 5]: 0.20 ± 0.01 ×10^9/l
- IgA [4, 5]: 2.1 ± 0.3 g/L
- IgG [4, 5]: 14.9 ± 1.7 g/L
- IgM [4, 5]: 1.64 ± 0.06 g/L
- LMIR (lymphocyte migration inhibition reaction with Con A) [4, 5]: 70.4 ± 4.9 %
- Leukocytes [4, 5]: 5.6 ± 0.1 ×10^9/l
- Lymphocytes, % [4, 5]: 35.1 ± 2.1%
- Lymphocytes, ×10^9/l [4, 5]: 1.87 ± 0.05 ×10^9/l
